Experimental data from patent publication US7776880B2, “Derivatives of pyrrolizine, indolizine and quinolizine, preparation thereof and therapeutic use thereof” (sanofi-aventis, priority 2006, dated 2010).
Where a name gives a salt, the structure may show the parent alone.

Target: T1, native human transporter GlyT1 (Homo sapiens, UniProt P48067)
T1 construct: SK-N-MC cells (human neuroepithelial cells) expressing the native human transporter GlyT1; endogenous in cells; host or cells: SK-N-MC (human neuroepithelial cells)
T1 sequence (P48067 1-706): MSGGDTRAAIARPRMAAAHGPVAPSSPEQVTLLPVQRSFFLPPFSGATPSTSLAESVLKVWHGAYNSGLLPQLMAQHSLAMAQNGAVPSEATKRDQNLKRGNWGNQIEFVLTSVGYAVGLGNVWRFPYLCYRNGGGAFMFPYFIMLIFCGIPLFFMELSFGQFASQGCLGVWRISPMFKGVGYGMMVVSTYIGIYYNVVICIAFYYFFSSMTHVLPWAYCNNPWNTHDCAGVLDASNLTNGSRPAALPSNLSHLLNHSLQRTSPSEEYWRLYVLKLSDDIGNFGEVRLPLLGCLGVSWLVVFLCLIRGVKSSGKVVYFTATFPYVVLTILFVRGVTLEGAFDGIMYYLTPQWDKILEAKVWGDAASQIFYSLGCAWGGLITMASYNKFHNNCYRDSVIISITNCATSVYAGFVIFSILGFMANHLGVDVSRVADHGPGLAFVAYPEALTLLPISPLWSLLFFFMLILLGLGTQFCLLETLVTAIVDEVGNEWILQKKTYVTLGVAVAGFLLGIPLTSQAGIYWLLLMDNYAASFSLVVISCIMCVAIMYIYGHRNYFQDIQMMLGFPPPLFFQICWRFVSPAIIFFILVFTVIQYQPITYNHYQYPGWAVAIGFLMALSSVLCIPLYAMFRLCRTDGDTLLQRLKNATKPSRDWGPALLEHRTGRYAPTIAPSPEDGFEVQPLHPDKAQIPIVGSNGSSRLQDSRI
Test: Uptake of [14C]glycine in SK-N-MC cells expressing the native human transporter GlyT1
Type: cell-based
Details: 10 μM [14C]glycine, 10 min preincubation and 10 min incubation at 37° C., pH 7.4, read-out: IC50, the concentration of the compound which reduces by 50% the specific uptake of glycine
Description: Study of glycine transportation in SK-N-MC cells expressing the native human transporter GlyT1.
The uptake of [^14C]glycine is studied in SK-N-MC cells (human neuroepithelial cells) expressing the native human transporter GlyT1 by measuring the radioactivity incorporated in the presence or absence of the test compound. The cells are cultured as a monolayer for 48 hours in plates pretreated with 0.02% fibronectin. On the day of the experiment, the culture medium is removed and the cells are washed with Krebs-HEPES (4-(2-hydroxyethyl)piperazine-1-ethanesulphonic acid) buffer at pH 7.4. After preincubation for 10 minutes at 37° C. in the presence either of buffer (control batch) or of test compound at various concentrations or of 10 mM of glycine (determination of the non-specific uptake), 10 μM of [^14C]glycine (specific activity 112 mCi/mmol) are subsequently added. Incubation is continued for 10 min at 37° C. and the reaction is halted by washing twice with pH 7.4 Krebs-HEPES buffer. The radioactivity incorporated by the cells is then estimated after adding 100 μl of liquid scintillant and stirring for 1 h. Counting is carried out on a Microbeta Tri-Lux™ counter. The effectiveness of the compound is determined by the IC50, the concentration of the compound which reduces by 50% the specific uptake of glycine, defined by the difference in radioactivity incorporated by the control batch and the batch which received the 10 mM glycine.

SMILES	IC50
O=C(NC(c1ccccc1)C1CCCC2CCCN21)c1cccc(C(F)(F)F)c1Cl (racemic) [Compound 1, trans-threo-2-Chloro-N-[(octahydroindolizin-5-yl)phenylmethyl]-3-trifluoromethyl-benzamide hydrochloride 1:1]	80 nM
O=C(N[C@H](c1ccccc1)[C@@H]1CCC[C@H]2CCCN21)c1cccc(C(F)(F)F)c1Cl (racemic) [Compound 2, trans-erythro-2-chloro-N-[(octahydroindolizin-5-yl)phenylmethyl]-3-trifluoromethyl-benzamide hydrochloride 1:1]	23 nM
O=C(NC(c1ccccc1)C1CCC2CCCCN21)c1cccc(C(F)(F)F)c1Cl (racemic) [Compound 5, trans-threo-2-Chloro-N-[(octahydroindolizin-3-yl)phenylmethyl]-3-trifluoromethyl-benzamide hydrochloride 1.1]	3 nM

Tested on: not given
Test: not given
Details: not given

SMILES	melting point
O=C(NC(c1ccccc1)C1CCCC2CCCN21)c1cccc(C(F)(F)F)c1Cl (racemic) (as salt: HCl) [Compound 1, trans-threo-2-Chloro-N-[(octahydroindolizin-5-yl)phenylmethyl]-3-trifluoromethyl-benzamide hydrochloride 1:1]	132 to 134 °C
O=C(N[C@H](c1ccccc1)[C@@H]1CCC[C@H]2CCCN21)c1cccc(C(F)(F)F)c1Cl (racemic) (as salt: HCl) [Compound 2, trans-erythro-2-chloro-N-[(octahydroindolizin-5-yl)phenylmethyl]-3-trifluoromethyl-benzamide hydrochloride 1:1]	132 to 134 °C
O=C(NC(c1ccccc1)C1CCC2CCCCN21)c1cccc(C(F)(F)F)c1Cl (racemic) (as salt: HCl) [Compound 5, trans-threo-2-Chloro-N-[(octahydroindolizin-3-yl)phenylmethyl]-3-trifluoromethyl-benzamide hydrochloride 1.1]	138 to 139 °C
